Values quoted from earlier work in US10610595B2, “Stabilized pharmaceutical formulations of insulin analogues and/or insulin derivatives” (SANOFI, priority 2014, dated 2020).

Tested on: blood glucose level
Settings: Lill, Pharmazie in unserer Zeit 2001

Substance	amount corresponding to 1 U
human insulin	approximately 35 μg

Same assay, conditions: product information

Substance	amount corresponding to 100 U
insulin lispro	3.5 mg
insulin detemir [insulin determir]	14.2 mg
insulin glulisine	3.49 mg
insulin aspart	3.5 mg
insulin glargine	3.64 mg
